Experimental data from ChEMBL document CHEMBL1138648, “Synthesis of new N-(2-(trifluoromethyl)pyridin-4-yl)anthranilic acid derivatives and their evaluation as anticancer agents” (2004).

Tests used:
Assay type in all cases: functional
NCI-H460 [1] = experiment: In vitro percent of proliferation of vehicle treated NCI-H460 human lung cell lines was determined at 0.0010 M concentration
MCF7 [2] = experiment: In vitro percent of proliferation of vehicle treated MCF-7 human breast cell lines was determined at 0.0010 M concentration
SF-268 [3] = experiment: In vitro percent of proliferation of vehicle treated SF-268 human CNS cell lines was determined at 0.0010 M concentration
SR = experiment: Growth inhibitory activity against Leukemia SR cell line was determined; conditions: Homo sapiens
BT-549 = experiment: Growth inhibitory activity against Breast cancer BT-549 cell line was determined; conditions: Homo sapiens
OVCAR-5 = experiment: Growth inhibitory activity against Ovarian cancer OVCAR-5 cell line was determined; conditions: Homo sapiens
SF-268 [4] = experiment: Growth inhibitory activity against CNS cancer SF-268 cell line was determined; conditions: Homo sapiens
HOP-92 = experiment: Growth inhibitory activity against non small cell lung cancer HOP-92 cell line was determined; conditions: Homo sapiens
SN12C = experiment: Growth inhibitory activity against Renal cancer SN12C cell line was determined; conditions: Homo sapiens
CCRF-CEM = experiment: Growth inhibitory activity against Leukemia CCRF-CEM cell line was determined; conditions: Homo sapiens
NCI-H23 = experiment: Growth inhibitory activity against non small cell lung cancer NCI-H23 cell line was determined; conditions: Homo sapiens
Hs-578T = experiment: Growth inhibitory activity against Breast cancer HS 578T cell line was determined; conditions: Homo sapiens
MOLT-4 = experiment: Growth inhibitory activity against Leukemia MOLT-4 cell line was determined; conditions: Homo sapiens
OVCAR-3 = experiment: Growth inhibitory activity against Ovarian cancer OVCAR-3 cell line was determined; conditions: Homo sapiens
HCT-15 = experiment: Growth inhibitory activity against colon cancer HCT-15 cell line was determined; conditions: Homo sapiens
NCI-H322M = experiment: Growth inhibitory activity against non small cell lung cancer NCI-H322M cell line was determined; conditions: Homo sapiens
SK-MEL-5 = experiment: Growth inhibitory activity against Melanoma SK-MEL-5 cell line was determined; conditions: Homo sapiens
NCI-H460 [5] = experiment: Growth inhibitory activity against non small cell lung cancer H460 cell line was determined; conditions: Homo sapiens
EKVX = experiment: Growth inhibitory activity against non small cell lung cancer EKVX cell line was determined; conditions: Homo sapiens
HL-60 = experiment: Growth inhibitory activity against Leukemia HL-60(TB) cell line was determined; conditions: Homo sapiens
NCI-H522 = experiment: Growth inhibitory activity against non small cell lung cancer H522 cell line was determined; conditions: Homo sapiens
HCC 2998 = experiment: Growth inhibitory activity against colon cancer HCC2998 cell line was determined; conditions: Homo sapiens
K562 = experiment: Growth inhibitory activity against Leukemia K-562 cell line was determined; conditions: Homo sapiens
HCT-116 = experiment: Growth inhibitory activity against colon cancer HCT116 cell line was determined; conditions: Homo sapiens
SF-539 = experiment: Growth inhibitory activity against CNS cancer SF-539 cell line was determined; conditions: Homo sapiens
KM12 = experiment: Growth inhibitory activity against colon cancer KM12 cell line was determined; conditions: Homo sapiens
OVCAR-8 = experiment: Growth inhibitory activity against Ovarian cancer OVCAR-8 cell line was determined; conditions: Homo sapiens
786-0 = experiment: Growth inhibitory activity against Renal cancer 786-0 cell line was determined; conditions: Homo sapiens
UACC-62 = experiment: Growth inhibitory activity against Melanoma UACC-62 cell line was determined; conditions: Homo sapiens
NCI-H226 = experiment: Growth inhibitory activity against non small cell lung cancer NCI-H226 cell line was determined; conditions: Homo sapiens
MDA-MB-435 = experiment: Growth inhibitory activity against Breast cancer MDA-MB-435 cell line was determined; conditions: Homo sapiens
CAKI-1 = experiment: Growth inhibitory activity against Renal cancer CAKI-1 cell line was determined; conditions: Homo sapiens
MCF7 [6] = experiment: Growth inhibitory activity against Breast cancer MCF-7 cell line was determined; conditions: Homo sapiens
SF-295 = experiment: Growth inhibitory activity against CNS cancer SF-295 cell line was determined; conditions: Homo sapiens
TK-10 = experiment: Growth inhibitory activity against Renal cancer TK-10 cell line was determined; conditions: Homo sapiens
A549 = experiment: Growth inhibitory activity against non small cell lung cancer A549/ATCC cells; conditions: Homo sapiens
RPMI-8226 = experiment: Growth inhibitory activity against Leukemia RPMI-8226 cell line was determined; conditions: Homo sapiens
PC-3 = experiment: Growth inhibitory activity against Prostate cancer PC-3 cell line was determined; conditions: Homo sapiens
DU-145 = experiment: Growth inhibitory activity against Prostate cancer DU-145 cell line was determined; conditions: Homo sapiens
HOP-62 = experiment: Growth inhibitory activity against non small cell lung cancer HOP-62 cell line was determined; conditions: Homo sapiens
MDA-MB-231 = experiment: Growth inhibitory activity against Breast cancer MDA-MB-231/ATCC cell line was determined; conditions: Homo sapiens
NCI/ADR-RES = experiment: Growth inhibitory activity against Breast cancer NCI/ADR-RES cell line was determined; conditions: Homo sapiens
M14 = experiment: Growth inhibitory activity against Melanoma M14 cell line was determined; conditions: Homo sapiens
SW-620 = experiment: Growth inhibitory activity against colon cancer SW-620 cell line was determined; conditions: Homo sapiens
ACHN = experiment: Growth inhibitory activity against Renal cancer ACHN cell line was determined; conditions: Homo sapiens
UACC-257 = experiment: Growth inhibitory activity against Melanoma UACC-257 cell line was determined; conditions: Homo sapiens

O=C(O)c1ccccc1Nc1ccnc(C(F)(F)F)c1
Proliferation (NCI-H460 [1]): 100% | Proliferation (MCF7 [2]): 105% | Proliferation (SF-268 [3]): 102%

O=C(Nc1cccnc1)c1ccccc1Nc1ccnc(C(F)(F)F)c1
Proliferation (NCI-H460 [1]): 62% | Proliferation (MCF7 [2]): 56% | Proliferation (SF-268 [3]): 98%

O=C(Nc1ccccn1)c1ccccc1Nc1ccnc(C(F)(F)F)c1
Proliferation (NCI-H460 [1]): 86% | Proliferation (MCF7 [2]): 66% | Proliferation (SF-268 [3]): 94%

O=C(Oc1cccc(Cl)c1)c1ccccc1Nc1ccnc(C(F)(F)F)c1
GI50 (SR): 0.44 µM | GI50 (BT-549): 6.8 µM | GI50 (OVCAR-5): 14 µM | GI50 (SF-268 [4]): 3 µM | GI50 (HOP-92): 8.7 µM | GI50 (SN12C): 3 µM | GI50 (CCRF-CEM): 0.89 µM | GI50 (NCI-H23): 2.4 µM | GI50 (Hs-578T): 21 µM | GI50 (MOLT-4): 0.93 µM | GI50 (OVCAR-3): 3.8 µM | GI50 (HCT-15): 3.7 µM | GI50 (NCI-H322M): 23 µM | GI50 (SK-MEL-5): 2.6 µM | GI50 (NCI-H460 [5]): 11 µM | GI50 (EKVX): 22 µM | GI50 (HL-60): 13 µM | GI50 (NCI-H522): 4.2 µM | GI50 (HCC 2998): 3.5 µM | GI50 (K562): 3.2 µM | GI50 (HCT-116): 1.6 µM | GI50 (SF-539): 2.8 µM | GI50 (KM12): 9.5 µM | GI50 (OVCAR-8): 3.5 µM | GI50 (786-0): 3.5 µM | GI50 (UACC-62): 2 µM | GI50 (NCI-H226): 2.1 µM | GI50 (MDA-MB-435): 3 µM | GI50 (CAKI-1): 2.1 µM | GI50 (MCF7 [6]): 4.8 µM | Proliferation (NCI-H460 [1]): 3% | GI50 (SF-295): 18 µM | GI50 (TK-10): 85 µM | GI50 (A549): 18 µM | Proliferation (MCF7 [2]): 12% | GI50 (RPMI-8226): 1.8 µM | GI50 (PC-3): 7.4 µM | GI50 (DU-145): 14 µM | GI50 (HOP-62): 25 µM | GI50 (MDA-MB-231): 1.7 µM | GI50 (NCI/ADR-RES): 2.2 µM | Proliferation (SF-268 [3]): 5% | GI50 (M14): 1.8 µM | GI50 (SW-620): 4.4 µM

CSc1ccc(OC(=O)c2ccccc2Nc2ccnc(C(F)(F)F)c2)cc1
Proliferation (NCI-H460 [1]): 68% | Proliferation (MCF7 [2]): 80% | Proliferation (SF-268 [3]): 81%

COC(=O)c1ccccc1Nc1ccnc(C(F)(F)F)c1
Proliferation (NCI-H460 [1]): 100% | Proliferation (MCF7 [2]): 96% | Proliferation (SF-268 [3]): 103%

O=C(Oc1ccc(Cl)cc1)c1ccccc1Nc1ccnc(C(F)(F)F)c1
GI50 (SR): 4 µM | GI50 (BT-549): 15 µM | GI50 (OVCAR-5): 26 µM | GI50 (SF-268 [4]): 4.4 µM | GI50 (HOP-92): 21 µM | GI50 (SN12C): 3 µM | GI50 (CCRF-CEM): 4.9 µM | GI50 (NCI-H23): 2.8 µM | GI50 (Hs-578T): 30 µM | GI50 (MOLT-4): 100 µM | GI50 (OVCAR-3): 11 µM | GI50 (HCT-15): 2.1 µM | GI50 (NCI-H322M): 17 µM | GI50 (SK-MEL-5): 17 µM | GI50 (NCI-H460 [5]): 10 µM | GI50 (ACHN): 11 µM | GI50 (EKVX): 25 µM | GI50 (HL-60): 6.4 µM | GI50 (NCI-H522): 4.3 µM | GI50 (HCC 2998): 13 µM | GI50 (K562): 3.6 µM | GI50 (SF-539): 15 µM | GI50 (KM12): 8.9 µM | GI50 (OVCAR-8): 4.1 µM | GI50 (786-0): 2.7 µM | GI50 (UACC-62): 2.6 µM | GI50 (NCI-H226): 2.9 µM | GI50 (MDA-MB-435): 2.1 µM | GI50 (CAKI-1): 2.3 µM | GI50 (UACC-257): 4.5 µM | GI50 (MCF7 [6]): 3.7 µM | Proliferation (NCI-H460 [1]): 9% | GI50 (SF-295): 63 µM | GI50 (TK-10): 18 µM | GI50 (A549): 15 µM | Proliferation (MCF7 [2]): 24% | GI50 (RPMI-8226): 2.9 µM | GI50 (PC-3): 17 µM | GI50 (DU-145): 19 µM | GI50 (MDA-MB-231): 1.8 µM | GI50 (NCI/ADR-RES): 16 µM | Proliferation (SF-268 [3]): 28% | GI50 (M14): 2.1 µM | GI50 (SW-620): 6.6 µM
